Measured values published in patent US10035814B2, “Guanine analogs as telomerase substrates and telomere length affectors” (Geron Corporation, priority 2011, dated 2018).
Where “and” joins values, the source holds several entries; their conditions need not be identical. Identical values can stand only once.

Tests used:
telomerase [1] = target: T1, telomerase (Homo sapiens (Human), UniProt O14746); test: Primer extension assay for telomerase activity; format: biochemical; details: for IC50: purified telomerase, dGTP 50 μM
T1 sequence (O14746 whole entry): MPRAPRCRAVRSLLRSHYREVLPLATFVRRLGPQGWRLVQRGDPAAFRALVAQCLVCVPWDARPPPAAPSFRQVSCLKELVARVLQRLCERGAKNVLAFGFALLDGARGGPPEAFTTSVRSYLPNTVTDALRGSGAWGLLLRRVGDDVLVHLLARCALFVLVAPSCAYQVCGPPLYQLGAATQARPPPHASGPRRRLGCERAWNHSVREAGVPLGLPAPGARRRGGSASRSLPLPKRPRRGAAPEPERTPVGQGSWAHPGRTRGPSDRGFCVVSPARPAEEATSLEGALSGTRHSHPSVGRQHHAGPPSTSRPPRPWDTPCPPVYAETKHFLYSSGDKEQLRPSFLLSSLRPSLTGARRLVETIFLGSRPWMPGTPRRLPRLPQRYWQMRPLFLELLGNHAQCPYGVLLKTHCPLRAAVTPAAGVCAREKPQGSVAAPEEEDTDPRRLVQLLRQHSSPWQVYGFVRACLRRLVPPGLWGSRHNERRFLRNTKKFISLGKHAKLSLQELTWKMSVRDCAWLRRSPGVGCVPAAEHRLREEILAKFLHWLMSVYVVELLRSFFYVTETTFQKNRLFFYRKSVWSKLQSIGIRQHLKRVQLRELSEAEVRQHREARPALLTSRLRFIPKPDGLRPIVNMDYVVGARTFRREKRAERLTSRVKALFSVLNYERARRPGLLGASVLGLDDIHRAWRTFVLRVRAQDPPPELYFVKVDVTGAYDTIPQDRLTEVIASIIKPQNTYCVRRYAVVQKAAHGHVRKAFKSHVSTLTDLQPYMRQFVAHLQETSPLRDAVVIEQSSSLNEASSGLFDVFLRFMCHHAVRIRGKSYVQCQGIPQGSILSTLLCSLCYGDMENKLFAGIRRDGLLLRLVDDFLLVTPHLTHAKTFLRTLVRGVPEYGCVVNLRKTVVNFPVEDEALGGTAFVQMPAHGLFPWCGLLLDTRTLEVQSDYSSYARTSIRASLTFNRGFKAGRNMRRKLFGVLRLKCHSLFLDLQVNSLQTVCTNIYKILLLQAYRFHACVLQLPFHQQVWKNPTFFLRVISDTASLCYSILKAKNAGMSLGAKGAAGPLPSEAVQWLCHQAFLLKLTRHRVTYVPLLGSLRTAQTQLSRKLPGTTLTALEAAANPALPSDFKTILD
Experimental: Purified human telomerase was incubated with d(TTAGGG)3 (SEQ ID NO: 1) and deoxy-nucleoside triphosphates for 90 minutes at 37° C. All reactions were done in the presence of 200 dTTP and 10 μM dATP (50,000 cpm/pmol a-^33P-dATP). Activity was determined by incubating affinity purified telomerase extract with 1 μM primer [d(TTAGGG)3] (SEQ ID NO: 1), 200 μM dTTP, 50 μM dGTP, 10 μM dATP, 10 μCi [α-^33P]dATP (2000-4000 Ci/mmol) in a buffer containing 50 mM (N-2-hydroxyethyl piperazine-N′-3 propanesulfonic acid)-NaOH pH 8.5, 1 mM MgCl2, 1 mM DTT, 5% glycerol, 0.5 mM EGTA and 100 mM KOAc in a final reaction volume of 40 μl. Primer extension products were analyzed on a 15% polyacrylamide gel containing 7 M urea. A characteristic telomerase ladder has multiple bands. If a compound is not a substrate then (TTAGGG)3TTA (21 nt) (SEQ ID NO: 2). If a compound is a chain terminator then (TTAGGG)3TTAG* (22 nt) (SEQ ID NO: 3).
Purified human telomerase was incubated with d(TTAGGG)3 (SEQ ID NO: 1) and deoxy-nucleoside triphosphates for 90 minutes at 37° C. All reactions were done in the presence of 200 dTTP and 10 μM dATP (50,000 cpm/pmol a-^33P-dATP). Activity was determined by incubating affinity purified telomerase extract with […] primer [d(TTAGGG)3] (SEQ ID NO: 1), […] [α-^33P]dATP (2000-4000 Ci/mmol) in a buffer containing 50 mM (N-2-hydroxyethyl piperazine-N′-3 propanesulfonic acid)-NaOH pH 8.5, 1 mM MgCl2, 1 mM DTT, 5% glycerol, 0.5 mM EGTA and 100 mM KOAc in a final reaction volume of 40 μl. Primer extension products were analyzed on a 15% polyacrylamide gel containing 7 M urea. A characteristic telomerase ladder has multiple bands. If a compound is not a substrate then (TTAGGG)3TTA (21 nt) (SEQ ID NO: 2). If a compound is a chain terminator then (TTAGGG)3TTAG* (22 nt) (SEQ ID NO: 3).

telomerase [2] = target: T1, telomerase; test: Flash plate (Flashplate) telomerase assay; format: biochemical; details: affinity purified telomerase extract, 20 μM dGTP; read-out: Flashplate IC 50
Experimental: Determining IC50 for PMPGpp, (R)-PMPGpp and (S)-PMPGpp. Telomerase activity was determined using the “flash-plate” assay with concentrations of PMPGpp ranging from 0.05 μM to 50 μM.
Compound was pre-incubated with affinity purified telomerase extract, 100 nM primer [5′ biotin-d(AATCCGTCGAGCAGAGTT)] (SEQ ID NO: 4), 120 μM dTTP, 20 μM dGTP, […], in a buffer containing 50 mM Tris-Acetate (pH 8.2), 1 mM MgCl2, 1 mM DTT, 0.5 mM EGTA and 150 mM KOAc, 5.4 nM ^33P-labeled [d([…])] (SEQ ID NO: 5 (6×10^9 cpm/nmol) in a final reaction volume of 30 μl. Incubations were done for 90 min at 37° C. Following stoppage of the reaction with EDTA (10 mM), the reaction products were captured in a streptavidin coated 96 well FlashPlate. After a 2 hr capture period for the primer, the plates were washed five times (2×SSC, 0.1% SDS, 10 mM EDTA) and counted.
Compound was pre-incubated with affinity purified telomerase extract, 100 nM primer [5′ biotin-d(AATCCGTCGAGCAGAGTT)] (SEQ ID NO: 4), 120 μM dTTP, 20 μM dGTP, 10 μM dATP, in a buffer containing 50 mM Tris-Acetate (pH 8.2), 1 mM MgCl2, 1 mM DTT, 0.5 mM EGTA and 150 mM KOAc, 5.4 nM ^33P-labeled [d([…])] […]

Primer Ext. Assay Notes: telomerase substrate / chain terminator (telomerase [1]; listed as PMPGpp) | Primer Ext. Assay Notes: telomerase substrate / chain terminator (telomerase [1]; listed as R-PMPGpp) | IC50 (telomerase [1]) | IC50 (telomerase [2]) | SMILES
acts as a chain terminator | resulting in chain termination | ~1000 nM and 1000 nM | 1000 nM | CC(Cn1cnc2c(=O)[nH]c(N)nc21)OCP(=O)(O)OP(=O)(O)OP(=O)(O)O (single isomer, unassigned) [ID#142692]
 |  | 13500 nM | 14100 nM | CC(Cn1cnc2c(=O)[nH]c(N)nc21)OCP(=O)(O)OP(=O)(O)OP(=O)(O)O (single isomer, unassigned) [ID#142751, PMPG free acid, S form]
